The results in this text go back to patent US10450309B2, “Aryl sulfonamides as BLT1 antagonists” (Merck Sharp & Dohme Corp., priority 2015, dated 2019).

T1 sequence (Q15722 whole entry): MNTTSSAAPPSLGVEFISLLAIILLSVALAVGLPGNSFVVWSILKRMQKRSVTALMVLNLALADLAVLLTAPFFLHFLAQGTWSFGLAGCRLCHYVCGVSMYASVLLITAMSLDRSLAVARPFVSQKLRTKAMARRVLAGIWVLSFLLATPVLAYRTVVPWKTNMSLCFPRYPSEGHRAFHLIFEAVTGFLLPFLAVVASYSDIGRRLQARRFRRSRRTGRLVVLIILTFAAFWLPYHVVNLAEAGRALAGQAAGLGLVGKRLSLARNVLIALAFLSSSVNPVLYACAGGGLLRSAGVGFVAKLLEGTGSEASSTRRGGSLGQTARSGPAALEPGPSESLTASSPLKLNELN

The test concerns the target T1, human BLT1 receptor (Homo sapiens, UniProt Q15722).
T1 construct: expressed in transfected cells; host or cells: HEK293
As to the kind of experiment: BLT-1 cAMP Assay. Conditions: antagonist mode; HEK293 cells recombinantly expressing human BLT1; forskolin 4 μM and LTB4 2 nM. The format is cell-based. The method, then:
The ability of compounds to antagonize the human BLT1 receptor was determined using a kit to measure changes in intracellular cyclic AMP levels (cAMP dynamic assay kit, Cisbio Cat. No. 62AM4PEC). HEK293 cells recombinantly expressing human BLT1, previously frozen in Recovery Medium (Life Technologies, Cat. No. 12648-010) were thawed and diluted into assay medium (HBSS (Hyclone SH 30268.01), 20 mM HEPES (Gibco 15630-106), 800 μM IBMX (Sigma 15879), 0.1% DTPA BSA (Perkin Elmer CR84-100)). The cell suspension was centrifuged at 200×g for 10 min and then resuspended in fresh assay medium to a density of 2.5×10^5 cells/mL. A Labcyte Echo 550 acoustic dispenser was used to transfer 25 nL of test compound dissolved in DMSO into the wells of a dry 384-well plate (Greiner 784075). All subsequent liquid additions were performed using a BIORAPTR (FRD; Beckman Coulter). Next, 5 μL of cell suspension was added and incubated for 20 min. at 37° C. and 5% CO2 in a humidified plastic tray. To test for agonist activity 5 μL of assay buffer containing forskolin (Sigma F-6886. 4 μM for BLT1) was added and incubated for 30 minutes at 37° C. and 5% CO2 in a humidified plastic tray. To test for antagonist activity 5 μL of assay buffer containing forskolin (Sigma F-6886. 4 μM for BLT1) and either LTB4 (Sigma Aldrich L0517; 2 nM BLT1) was added and incubated for 30 minutes at 37° C. and 5% CO2 in a humidified plastic tray.
The levels of cAMP were detected using the CisBio kit following the manufacturer's instructions: cAMP-d2 vial was reconstituted with distilled water and then diluted accordingly with conjugate & lysis buffer. 5 μL of cAMP-d2 working solution was added to all of the wells of the assay plate. cAMP-Cryptate vial was reconstituted with distilled water and then diluted accordingly with conjugate & lysis buffer. 5 μL of cAMP-Cryptate working solution were added to the assay plate. The assay plate was shaken for 3 minutes and incubated at room temperature for 45 minutes, then read on Perkin Elmer Envision. cAMP standard curve and fit data were plotted using a 4 parameter dose response curve fitting algorithm to fit curve. A 4-parameter curve fit (Max, min, log EC50 and slope) was used to transform fluorescent 665 nm/615 nm ratio signal to cAMP concentration. After normalization to treated and untreated controls, the percent effect of signal at each compound concentration was calculated. The plot of percent effect versus the log of compound concentration was fit with a 4-parameter concentration response equation to calculate EC50 values. Compound concentrations tested were 10 000, 3 333, 1 111, 370.4, 123.4, 41.2, 13.7, 4.6, 1.5 and 0.5 nM with 0.25% residual DMSO.
Turning to “1,1,1-Trifluoro-N-(2-((3R,4S or 3S,4R)-4-hydroxy-3-((5-(5-methylthiazol-2-yl)pyridin-2-yl)methyl)chroman-7-yl)phenyl)methanesulfonamide [Example 6]”, the EC50 was 187 nM. For the compound “1,1,1-Trifluoro-N-(2-((3S,4R or 3R,4S)-4-hydroxy-3-((5-(5-methylthiazol-2-yl)pyridin-2-yl)methyl)chroman-7-yl)phenyl)methanesulfonamide [Example 7]”, the EC50 worked out at 4 nM. To `O=S(=O)(Nc1ccc(F)cc1-c1ccc2c(c1)OC[C@H](Cc1ccc(-c3cncs3)cn1)[C@H]2O)C(F)(F)F` (racemic) [Example 8, 1,1,1-trifluoro-N-{4-fluoro-2-[(rac-trans) 4-hydroxy-3-{[5-(1,3-thiazol-5-yl)pyridin-2-yl]methyl}-3,4-dihydro-2H-chromen-7-yl]phenyl}methanesulfonamide] belongs 24 nM; to `O=S(=O)(Nc1ccccc1-c1ccc2c(c1)OC[C@@H](Cc1ccc(-c3cncs3)cn1)[C@@H]2O)C(F)(F)F` (single isomer, unassigned) [Example 1, 1,1,1-Trifluoro-N-(2-((3R,4S or 3S,4R)-4-hydroxy-3-((5-(thiazol-5-yl)pyridin-2-yl)methyl)chroman-7-yl)phenyl)methanesulfonamide], 82 nM; to `O=S(=O)(Nc1ccccc1-c1ccc2c(c1)OC[C@H](Cc1ccc(-c3cncs3)cn1)[C@H]2O)C(F)(F)F` (single isomer, unassigned) [Example 2, 1,1,1-Trifluoro-N-(2-((3S,4R or 3R,4S)-4-hydroxy-3-((5-(thiazol-5-yl)pyridin-2-yl)methyl)chroman-7-yl)phenyl)methanesulfonamide], 8 nM.

Regarding `Cn1cc(-c2ccc(C[C@H]3COc4cc(-c5ccccc5NS(=O)(=O)C(F)(F)F)ccc4[C@@H]3O)nc2)cn1` (single isomer, unassigned) [Example 3, 1,1,1-Trifluoro-N-(2-((3S,4R or 3R,4S)-4-hydroxy-3-((5-(1-methyl-1H-pyrazol-4-yl)pyridin-2-yl)methyl)chroman-7-yl)phenyl)methanesulfonamide], the EC50 turned out to be 5 nM. The result for `Cn1cc(-c2ccc(C[C@@H]3COc4cc(-c5ccccc5NS(=O)(=O)C(F)(F)F)ccc4[C@H]3O)nc2)cn1` (single isomer, unassigned) [Example 4, 1,1,1-Trifluoro-N-(2-((3R,4S or 3S,4R)-4-hydroxy-3-((5-(1-methyl-1H-pyrazol-4-yl)pyridin-2-yl)methyl)chroman-7-yl)phenyl)methanesulfonamide] reads 140 nM; that for `Cn1nccc1-c1ccc(C[C@@H]2COc3cc(-c4ccccc4NS(=O)(=O)C(F)(F)F)ccc3[C@H]2O)nc1` (single isomer, unassigned) [Example 5, 1,1,1-Trifluoro-N-(2-((3,4-trans)-4-hydroxy-3-((5-(1-methyl-1H-pyrazol-5-yl)pyridin-2-yl)methyl)chroman-7-yl)phenyl)methanesulfonamide], 294 nM. To `O=S(=O)(Nc1ccccc1-c1ccc2c(c1)OC[C@@H](Cc1ccc(-c3cscn3)cn1)[C@@H]2O)C(F)(F)F` (single isomer, unassigned) [Example 9, 1,1,1-Trifluoro-N-(2-((3,4-trans)-4-hydroxy-3-((5-(thiazol-4-yl)pyridin-2-yl)methyl)chroman-7-yl)phenyl)methanesulfonamide] belongs 107 nM; to `O=S(=O)(Nc1ccccc1-c1ccc2c(c1)OC[C@@H](Cc1ccc(-c3nccs3)cn1)[C@@H]2O)C(F)(F)F` (single isomer, unassigned) [Example 10, 1,1,1-Trifluoro-N-(2-((3,4-trans)-4-hydroxy-3-((5-(thiazol-2-yl)pyridin-2-yl)methyl)chroman-7-yl)phenyl)methanesulfonamide], 20 nM. To `O=S(=O)(Nc1ccccc1-c1ccc2c(c1)OC[C@@H](Cc1ccc(-c3nccs3)cn1)[C@@H]2O)C(F)(F)F` (single isomer, unassigned) [Example 11, 1,1,1-Trifluoro-N-(2-((3,4-trans)-4-hydroxy-3-((5-(thiazol-2-yl)pyridin-2-yl)methyl)chroman-7-yl)phenyl)methanesulfonamide] belongs 16 nM; to `O=S(=O)(Nc1ccccc1-c1ccc2c(c1)OC[C@@H](Cc1ccc(-c3cscn3)cn1)[C@@H]2O)C(F)(F)F` (single isomer, unassigned) [Example 12, 1,1,1-Trifluoro-N-(2-((3,4-trans)-4-hydroxy-3-((5-(thiazol-4-yl)pyridin-2-yl)methyl)chroman-7-yl)phenyl)methanesulfonamide], 4 nM. With `O=S(=O)(Nc1ccc(F)cc1-c1ccc2c(c1)OC[C@H](Cc1ccc(-c3cncs3)cn1)[C@H]2O)C(F)(F)F` (single isomer, unassigned) [Example 13, 1,1,1-trifluoro-N-{4-fluoro-2-[(3S,4R or 3R,4S)-4-hydroxy-3-{[5-(1,3-thiazol-5-yl)pyridin-2-yl]methyl}-3,4-dihydro-2H-chromen-7-yl]phenyl}methane-sulfonamide], the EC50 was determined as 4 nM.

For the compound `O=S(=O)(Nc1ccc(F)cc1-c1ccc2c(c1)OC[C@@H](Cc1ccc(-c3cncs3)cn1)[C@@H]2O)C(F)(F)F` (single isomer, unassigned) [Example 14, 1,1,1-trifluoro-N-{4-fluoro-2-[(3R,4S or 3S,4R)-4-hydroxy-3-{[5-(1,3-thiazol-5-yl)pyridin-2-yl]methyl}-3,4-dihydro-2H-chromen-7-yl]phenyl}methane-sulfonamide], the half-maximal effective concentration (EC50) was 31 nM.

Broadly, the EC50 is the concentration needed to bring the measured effect to its halfway point.
